In ChEMBL document CHEMBL1201862, “PubChem BioAssay data set” (2004):
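96-well plates; 48 h exposure; 5 concentrations. Endpoints by linear interpolation between flanking doses. Not reached: highest tested concentration assigned. GI50 is the concentration that inhibits growth by half.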 Active and inactive are the calls of the source. Cut-off read from the data, not from the text of the source: active = GI50 up to about 1.1 µM and inactive = higher.

Experiments:
Assay in all cases: DTP human tumour cell line panel, 48 h
MOLT-4 = system: MOLT-4
IGROV-1 = system: IGROV-1
UACC-62 = system: UACC-62
OVCAR-3 = system: OVCAR-3
A549 = system: A549
786-0 = system: 786-0
DU-145 = system: DU-145
MDA-MB-435 = system: MDA-MB-435
SNB-19 = system: SNB-19
HT-29 = system: HT-29
HOP-92 = system: HOP-92
KM12 = system: KM12
UACC-257 = system: UACC-257
RXF 393 = system: RXF 393
HOP-62 = system: HOP-62
K562 = system: K562
OVCAR-4 = system: OVCAR-4
SNB-75 = system: SNB-75
RPMI-8226 = system: RPMI-8226
COLO 205 = system: COLO 205

| Compound | GI50 (MOLT-4) | GI50 (IGROV-1) | GI50 (UACC-62) | GI50 (OVCAR-3) | GI50 (A549) | GI50 (786-0) | GI50 (DU-145) | GI50 (MDA-MB-435) | GI50 (SNB-19) | GI50 (HT-29) | GI50 (HOP-92) | GI50 (KM12) | GI50 (UACC-257) | GI50 (RXF 393) | GI50 (HOP-62) | GI50 (K562) | GI50 (OVCAR-4) | GI50 (SNB-75) | GI50 (RPMI-8226) | GI50 (COLO 205) |
| --- | --- | --- | --- | --- | --- | --- | --- | --- | --- | --- | --- | --- | --- | --- | --- | --- | --- | --- | --- | --- |
| NC(=O)/N=C(\N)NC(=O)c1ccccc1 | > 100 µM (inactive) | > 100 µM (inactive) | > 100 µM (inactive) | > 100 µM (inactive) | > 100 µM (inactive) | > 100 µM (inactive) | > 100 µM (inactive) | > 100 µM (inactive) | > 100 µM (inactive) | > 100 µM (inactive) | > 100 µM (inactive) | > 100 µM (inactive) | > 100 µM (inactive) | > 100 µM (inactive) | > 100 µM (inactive) | > 100 µM (inactive) | – | – | – | – |
| Nc1n[nH]c(Nc2ccc(Cl)cc2)c1P(=O)(c1ccccc1)c1ccccc1 | 27.2 µM (inactive) | 19.1 µM (inactive) | 22.2 µM (inactive) | 18.1 µM (inactive) | 23.9 µM (inactive) | – | 37.7 µM (inactive) | 19.1 µM (inactive) | 26.7 µM (inactive) | 24 µM (inactive) | 20.8 µM (inactive) | 17.4 µM (inactive) | 31.3 µM (inactive) | 20.9 µM (inactive) | 20.2 µM (inactive) | 64.9 µM (inactive) | 22 µM (inactive) | 21.6 µM (inactive) | 39.5 µM (inactive) | 49.4 µM (inactive) |
| O=c1c(O)c(-c2cc(O)c(O)cc2O)oc2cc(O)c(C3OC(CO)C(O)C(O)C3O)c(O)c12 (stereo not given) | > 100 µM (inactive) | > 100 µM (inactive) | > 100 µM (inactive) | > 100 µM (inactive) | > 100 µM (inactive) | > 100 µM (inactive) | > 100 µM (inactive) | > 100 µM (inactive) | > 100 µM (inactive) | > 100 µM (inactive) | > 100 µM (inactive) | > 100 µM (inactive) | > 100 µM (inactive) | – | > 100 µM (inactive) | > 100 µM (inactive) | > 100 µM (inactive) | 45.1 µM (inactive) | > 100 µM (inactive) | – |
| Fc1ccc(Oc2nc3ccccc3nc2-c2ccccc2)cc1 | > 100 µM (inactive) | > 100 µM (inactive) | > 100 µM (inactive) | > 100 µM (inactive) | – | 80 µM (inactive) | > 100 µM (inactive) | > 100 µM (inactive) | > 100 µM (inactive) | > 100 µM (inactive) | 76.9 µM (inactive) | > 100 µM (inactive) | > 100 µM (inactive) | 37.2 µM (inactive) | 88.9 µM (inactive) | > 100 µM (inactive) | 36.5 µM (inactive) | – | 81.7 µM (inactive) | > 100 µM (inactive) |
| CS(=O)(=O)OCC1CCCCCCCCCCC12SCCCS2 (stereo not given) | > 100 µM (inactive) | > 100 µM (inactive) | > 100 µM (inactive) | > 100 µM (inactive) | > 100 µM (inactive) | > 100 µM (inactive) | > 100 µM (inactive) | > 100 µM (inactive) | > 100 µM (inactive) | > 100 µM (inactive) | > 100 µM (inactive) | > 100 µM (inactive) | > 100 µM (inactive) | > 100 µM (inactive) | > 100 µM (inactive) | > 100 µM (inactive) | > 100 µM (inactive) | – | – | > 100 µM (inactive) |
| CC1CC(=O)Nc2ccccc2N1C(=O)C1CC1 (stereo not given) | > 100 µM (inactive) | > 100 µM (inactive) | – | > 100 µM (inactive) | > 100 µM (inactive) | > 100 µM (inactive) | > 100 µM (inactive) | > 100 µM (inactive) | > 100 µM (inactive) | > 100 µM (inactive) | 19.5 µM (inactive) | > 100 µM (inactive) | > 100 µM (inactive) | > 100 µM (inactive) | > 100 µM (inactive) | > 100 µM (inactive) | > 100 µM (inactive) | – | > 100 µM (inactive) | > 100 µM (inactive) |
| N#CC(c1nc2ccccc2s1)c1nc(Cl)ncc1Br (stereo not given) | 72.4 µM (inactive) | 28.9 µM (inactive) | – | 27.2 µM (inactive) | 46.5 µM (inactive) | 30.3 µM (inactive) | 45.7 µM (inactive) | 50.6 µM (inactive) | 40.6 µM (inactive) | 46.5 µM (inactive) | 18.2 µM (inactive) | 40.1 µM (inactive) | 77.4 µM (inactive) | 26.9 µM (inactive) | 34.2 µM (inactive) | – | 47.8 µM (inactive) | 23.2 µM (inactive) | 25.4 µM (inactive) | 46.3 µM (inactive) |
| COc1ccc(NC(=S)N/N=C\c2ccc(NC(C)=O)cc2)cc1 | > 100 µM (inactive) | > 100 µM (inactive) | > 100 µM (inactive) | > 100 µM (inactive) | > 100 µM (inactive) | > 100 µM (inactive) | > 100 µM (inactive) | > 100 µM (inactive) | > 100 µM (inactive) | > 100 µM (inactive) | > 100 µM (inactive) | > 100 µM (inactive) | > 100 µM (inactive) | – | > 100 µM (inactive) | – | > 100 µM (inactive) | > 100 µM (inactive) | > 100 µM (inactive) | > 100 µM (inactive) |
| CN(C)c1ccc(/C=C/c2cc(-c3ccccc3)[n+](C)n2-c2ccccc2)cc1 | 0.144 µM (active) | 0.154 µM (active) | 0.481 µM (active) | 0.234 µM (active) | 0.411 µM (active) | 0.43 µM (active) | 0.215 µM (active) | 0.158 µM (active) | 0.0865 µM (active) | 0.0995 µM (active) | 0.467 µM (active) | 0.0635 µM (active) | 0.122 µM (active) | 0.281 µM (active) | 0.54 µM (active) | 0.0531 µM (active) | 6.41 µM (inactive) | – | 0.0221 µM (active) | 0.094 µM (active) |
| Cc1ccc(OCC2=NN3C(=O)/C(=C\c4ccc([N+](=O)[O-])o4)SC3N2)cc1 (stereo not given) | 2.33 µM (inactive) | 10.5 µM (inactive) | – | 1.95 µM (inactive) | 19 µM (inactive) | 10.2 µM (inactive) | 5.68 µM (inactive) | 5.47 µM (inactive) | 17.8 µM (inactive) | 6.7 µM (inactive) | 2.8 µM (inactive) | 15.8 µM (inactive) | 12.8 µM (inactive) | 14.9 µM (inactive) | 16.6 µM (inactive) | 0.711 µM (active) | 2.99 µM (inactive) | 15.9 µM (inactive) | 2.16 µM (inactive) | 3.19 µM (inactive) |
| CC#CC#C/C(=C/C=CC(=O)OC)SC | > 100 µM (inactive) | > 100 µM (inactive) | > 100 µM (inactive) | – | > 100 µM (inactive) | > 100 µM (inactive) | > 100 µM (inactive) | > 100 µM (inactive) | – | > 100 µM (inactive) | > 100 µM (inactive) | > 100 µM (inactive) | > 100 µM (inactive) | – | – | > 100 µM (inactive) | > 100 µM (inactive) | 39.4 µM (inactive) | – | > 100 µM (inactive) |
| O=C(O)CCCN1CCCCC1 | > 100 µM (inactive) | > 100 µM (inactive) | > 100 µM (inactive) | > 100 µM (inactive) | > 100 µM (inactive) | > 100 µM (inactive) | > 100 µM (inactive) | > 100 µM (inactive) | > 100 µM (inactive) | > 100 µM (inactive) | > 100 µM (inactive) | > 100 µM (inactive) | > 100 µM (inactive) | > 100 µM (inactive) | > 100 µM (inactive) | > 100 µM (inactive) | > 100 µM (inactive) | > 100 µM (inactive) | > 100 µM (inactive) | – |
| Cc1ccc(CC(Cc2ccccc2C)C(=O)O)c(C(=O)O)c1 (stereo not given) | > 100 µM (inactive) | > 100 µM (inactive) | – | > 100 µM (inactive) | > 100 µM (inactive) | > 100 µM (inactive) | > 100 µM (inactive) | > 100 µM (inactive) | > 100 µM (inactive) | > 100 µM (inactive) | > 100 µM (inactive) | > 100 µM (inactive) | > 100 µM (inactive) | > 100 µM (inactive) | > 100 µM (inactive) | > 100 µM (inactive) | > 100 µM (inactive) | > 100 µM (inactive) | > 100 µM (inactive) | > 100 µM (inactive) |
| O=C(Nc1ccccc1)N1CCN(C(=O)Nc2ccccc2)C1=S | > 100 µM (inactive) | 49 µM (inactive) | – | > 100 µM (inactive) | > 100 µM (inactive) | 37 µM (inactive) | > 100 µM (inactive) | > 100 µM (inactive) | – | > 100 µM (inactive) | 29 µM (inactive) | > 100 µM (inactive) | > 100 µM (inactive) | 19.9 µM (inactive) | 25.2 µM (inactive) | > 100 µM (inactive) | 55.7 µM (inactive) | 17.9 µM (inactive) | > 100 µM (inactive) | > 100 µM (inactive) |
| CON(C)C(=O)C(C)N(Cc1ccccc1)Cc1ccccc1 (stereo not given) | 26.5 µM (inactive) | 88.5 µM (inactive) | 66.2 µM (inactive) | 88.3 µM (inactive) | 57 µM (inactive) | > 100 µM (inactive) | > 100 µM (inactive) | 88.9 µM (inactive) | > 100 µM (inactive) | 79.1 µM (inactive) | > 100 µM (inactive) | > 100 µM (inactive) | 82 µM (inactive) | > 100 µM (inactive) | 23.3 µM (inactive) | 40.5 µM (inactive) | – | 36.9 µM (inactive) | 42.8 µM (inactive) | – |
